In patent US20230097157A1, “Bicyclic Pyridin-2-one and pyrimidin-4-one Derivatives Useful As a Factor XIa Inhibitors” (Janssen Pharmaceutica NV, priority 2021, published 2023):
Like-named read-outs stand apart in the source and are kept apart here.

Tests used:
[1] = target: Factor XIa (Homo sapiens, UniProt P03951); assay: Factor XIa inhibition assay (FLINT) utilizing a fluorophore-quencher pair peptide substrate 5Fam-[…]-K5Tamra; format: biochemical; conditions: kinetic (KIN) reads, read-out: FXIa KIN Inh IC50
Sequence of Factor XIa (P03951 388-625 limits assumed): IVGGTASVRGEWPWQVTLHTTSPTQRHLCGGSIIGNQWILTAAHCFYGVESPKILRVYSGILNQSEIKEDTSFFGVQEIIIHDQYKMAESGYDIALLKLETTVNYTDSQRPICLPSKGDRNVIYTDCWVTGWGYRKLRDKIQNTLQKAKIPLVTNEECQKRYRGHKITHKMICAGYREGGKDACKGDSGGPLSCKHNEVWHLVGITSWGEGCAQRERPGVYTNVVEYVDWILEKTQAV
Sequence of Factor XIa (P03951 19-387 partner limits assumed): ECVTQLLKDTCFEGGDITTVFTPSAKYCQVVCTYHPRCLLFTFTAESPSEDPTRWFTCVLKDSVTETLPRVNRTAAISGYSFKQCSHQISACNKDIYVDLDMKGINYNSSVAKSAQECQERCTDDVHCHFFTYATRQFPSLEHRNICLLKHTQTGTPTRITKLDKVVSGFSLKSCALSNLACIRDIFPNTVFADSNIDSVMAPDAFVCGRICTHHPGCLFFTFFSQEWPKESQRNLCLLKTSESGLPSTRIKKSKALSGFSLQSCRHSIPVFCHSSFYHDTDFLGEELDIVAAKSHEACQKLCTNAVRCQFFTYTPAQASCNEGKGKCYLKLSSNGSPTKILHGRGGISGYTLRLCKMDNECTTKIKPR
Summary of the method: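 Compounds were tested as 11-point 3-fold dilutions from 100 nM (2% DMSO). They were preincubated 30 min with FXIa in 50 mM Tris pH 7.5, 5 mM CaCl2, then 15 μM fluorophore-quencher peptide was added. Cleavage was followed at 485/520 nm over 30 min, and IC50 was derived by 4-parameter logistic fit.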

[2] = target: human plasma kallikrein (Homo sapiens, UniProt P03952); assay: Kallikrein inhibition assay (FLINT) utilizing a quenched AMC peptide substrate Z-Gly-Pro-Arg-AMC; format: biochemical; conditions: kinetic (KIN) reads, read-out: Kallikrein KIN Inh IC50
Sequence of human plasma kallikrein (P03952 391-638 limits assumed): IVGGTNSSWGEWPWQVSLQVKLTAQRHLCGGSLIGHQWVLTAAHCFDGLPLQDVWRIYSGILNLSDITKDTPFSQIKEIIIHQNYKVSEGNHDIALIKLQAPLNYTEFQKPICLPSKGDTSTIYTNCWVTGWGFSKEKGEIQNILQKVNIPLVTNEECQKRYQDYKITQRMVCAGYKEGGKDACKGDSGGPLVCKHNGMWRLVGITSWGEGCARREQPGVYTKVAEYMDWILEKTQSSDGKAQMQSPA
Sequence of human plasma kallikrein (P03952 20-390 partner limits assumed): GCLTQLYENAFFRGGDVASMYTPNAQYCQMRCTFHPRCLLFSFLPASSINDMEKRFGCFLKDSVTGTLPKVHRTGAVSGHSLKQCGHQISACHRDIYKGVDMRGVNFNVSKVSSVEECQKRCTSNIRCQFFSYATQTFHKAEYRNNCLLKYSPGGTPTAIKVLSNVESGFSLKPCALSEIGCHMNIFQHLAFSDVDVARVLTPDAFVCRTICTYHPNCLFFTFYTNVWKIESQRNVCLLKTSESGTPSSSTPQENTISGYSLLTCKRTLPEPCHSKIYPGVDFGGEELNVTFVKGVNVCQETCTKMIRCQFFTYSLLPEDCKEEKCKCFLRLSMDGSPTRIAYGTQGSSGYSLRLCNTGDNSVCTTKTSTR
Summary of the method: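 IC50 from a 4-parameter logistic fit of % inhibition from 11 concentrations (3-fold, top 1 μM, 2% DMSO). Compound pre-incubated 30 min with 2 nM enzyme in Tris pH 7.5, NaCl, CaCl2, BSA, CHAPS, then 50 μM AMC peptide substrate added. Fluorescence (340/440 nm) followed every 5 min for 30 min at room temperature.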

| SMILES | IC50 ([1]; values in nM) [nM] | IC50 ([2]; values in nM) [nM] | IC50 ([2]; unit μM) [nM] | IC50 ([1]; unit μM) [nM] |
| --- | --- | --- | --- | --- |
| C[C@H]1C[C@@H](c2ncc(-c3ccnc(CO)c3F)[nH]2)n2c1cc(-c1c(-n3cnnn3)ccc(Cl)c1F)cc2=O (relative stereo) [Example 2, (1 S*,3S*)-7-(3-Chloro-2-fluoro-6-(1H-tetrazol-1-yl)phenyl)-3-(5-(3-fluoro-2-(hydroxymethyl)pyridin-4-yl)-1H-imidazol-2-yl)-1-methyl-2,3-dihydroindolizin-5(1H)-one] | 22 | 170 | – | – |
| C[C@@H]1C[C@H](c2ncc(-c3cn[nH]c3)[nH]2)n2c1nc(-c1c(-n3cnnn3)ccc(Cl)c1F)cc2=O (stereo in doubt) [Example 108, (6*R,8*R)-6-(5-(1H-Pyrazol-4-yl)-1H-imidazol-2-yl)-2-(3-chloro-2-fluoro-6-(1H-tetrazol-1-yl)phenyl)-8-methyl-7,8-dihydropyrrolo[1,2-a]pyrimidin-4(6H)-one] | 90.3 | – | 7100 | – |
| COC(=O)Nc1ccc(-c2cnc([C@@H]3C[C@H](C)c4cc(-c5c(-n6cnnn6)ccc(Cl)c5F)cc(=O)n43)[nH]2)cc1 (relative stereo) [Example 64, Methyl(4-(2-((1*S,3*S)-7-(3-chloro-2-fluoro-6-(1H-tetrazol-1-yl)phenyl)-1-methyl-5-oxo-1,2,3,5-tetrahydroindolizin-3-yl)-1H-imidazol-5-yl)phenyl)carbamate] | – | – | 5400 | 1700 |
| C[C@H]1C[C@@H](c2ncc(-c3ccc(N)nc3F)[nH]2)n2c1nc(-c1c(-n3cnnn3)ccc(Cl)c1F)cc2=O (stereo in doubt) [Example 150, (6S*,8S*)-6-(5-(6-Amino-2-fluoropyridin-3-yl)-1H-imidazol-2-yl)-2-(3-chloro-2-fluoro-6-(1H-tetrazol-1-yl)phenyl)-8-methyl-7,8-dihydropyrrolo[1,2-a]pyrimidin-4(6H)-one] | 0.9 | 25.9 | – | – |
| C[C@H]1C[C@@H](c2cnc(-c3ccc(N)nc3F)[nH]2)n2c1cc(-c1c(-n3cnnn3)ccc(Cl)c1F)cc2=O (stereo in doubt) [Example 54, (1 S*,3S*)-3-(2-(6-Amino-2-fluoropyridin-3-yl)-1H-imidazol-5-yl)-7-(3-chloro-2-fluoro-6-(1H-tetrazol-1-yl)phenyl)-1-methyl-2,3-dihydroindolizin-5(1H)-one] | 430 | – | > 10000 | – |
| C[C@H]1C[C@@H](c2ncc(-c3cnc(N)s3)[nH]2)n2c1cc(-c1c(-n3cnnn3)ccc(Cl)c1F)cc2=O [Example 23, (1S,3S)-3-(5-(2-Aminothiazol-5-yl)-1H-imidazol-2-yl)-7-(3-chloro-2-fluoro-6-(1H-tetrazol-1-yl)phenyl)-1-methyl-2,3-dihydroindolizin-5(1H)-one] | 5 | 240 | – | – |
| Nc1ccc(-c2cnc([C@H]3CC4(CC4)c4cc(-c5c(-n6cnnn6)ccc(Cl)c5F)cc(=O)n43)[nH]2)c(F)n1 [Example 24, (R)-3′-(5-(6-Amino-2-fluoropyridin-3-yl)-1H-imidazol-2-yl)-7′-(3-chloro-2-fluoro-6-(1H-tetrazol-1-yl)phenyl)-2′,3′-dihydro-5′H-spiro[cyclopropane-1,1′-indolizin]-5′-one] | – | – | > 10000 | 1100 |
| C[C@H]1C[C@@H](c2ncc(-c3ccc(N)nc3F)[nH]2)n2c1cc(-c1cc(Cl)ccc1-n1cnnn1)cc2=O (single isomer, unassigned) [Example 36] | – | – | > 10000 | 1500 |
| C[C@H]1C[C@@H](c2ncc(-c3ccnc(N)c3F)[nH]2)n2c1nc(-c1c(-n3cnnn3)ccc(Cl)c1F)cc2=O (relative stereo) [Example 88, (6*S,8*S)-6-(5-(2-Amino-3-fluoropyridin-4-yl)-1H-imidazol-2-yl)-2-(3-chloro-2-fluoro-6-(1H-tetrazol-1-yl)phenyl)-8-methyl-7,8-dihydropyrrolo[1,2-a]pyrimidin-4(6H)-one] | 2.6 | 14.5 | – | – |
| C[C@H]1C[C@@H](c2ncc(-c3ncc(N)nc3C3CC3)[nH]2)n2c1nc(-c1c(-n3cnnn3)ccc(Cl)c1F)cc2=O (relative stereo) [Example 91, (6*S,8*S)-6-(5-(5-Amino-3-cyclopropylpyrazin-2-yl)-1H-imidazol-2-yl)-2-(3-chloro-2-fluoro-6-(1H-tetrazol-1-yl)phenyl)-8-methyl-7,8-dihydropyrrolo[1,2-a]pyrimidin-4(6H)-one] | 39 | 168 | – | – |
| C[C@@H]1C[C@@H](c2ncc(-c3ccnc(F)c3)[nH]2)n2c1cc(-c1c(-n3cnnn3)ccc(Cl)c1F)cc2=O (relative stereo) [Example 45, (1*R,3*S)-7-(3-Chloro-2-fluoro-6-(1H-tetrazol-1-yl)phenyl)-3-(5-(2-fluoropyridin-4-yl)-1H-imidazol-2-yl)-1-methyl-2,3-dihydroindolizin-5(1H)-one] | – | – | > 10000 | > 10000 |
| C[C@H]1C[C@@H](c2ncc(-c3ncc(N)nc3C(F)(F)F)[nH]2)n2c1nc(-c1c(-n3cnnn3)ccc(Cl)c1F)cc2=O (relative stereo) [Example 83, (6*S,8*S)-6-(5-(5-Amino-3-(trifluoromethyl)pyrazin-2-yl)-1H-imidazol-2-yl)-2-(3-chloro-2-fluoro-6-(1H-tetrazol-1-yl)phenyl)-8-methyl-7,8-dihydropyrrolo[1,2-a]pyrimidin-4(6H)-one] | 56.2 | 377 | – | – |
| C[C@H]1C[C@H](c2ncc(-c3cn[nH]c3)[nH]2)n2c1nc(-c1c(-n3cnnn3)ccc(Cl)c1F)cc2=O (stereo in doubt) [Example 109, (6*R,8*S)-6-(5-(1H-Pyrazol-4-yl)-1H-imidazol-2-yl)-2-(3-chloro-2-fluoro-6-(1H-tetrazol-1-yl)phenyl)-8-methyl-7,8-dihydropyrrolo[1,2-a]pyrimidin-4(6H)-one] | – | – | > 10000 | > 10000 |
| C[C@H]1C[C@@H](c2[nH]c(-c3ccc(N)nc3F)nc2F)n2c1cc(-c1c(-n3cnnn3)ccc(Cl)c1F)cc2=O [Example 34, (1S,3S)-3-(2-(6-Amino-2-fluoropyridin-3-yl)-4-fluoro-1H-imidazol-5-yl)-7-(3-chloro-2-fluoro-6-(1H-tetrazol-1-yl)phenyl)-1-methyl-2,3-dihydroindolizin-5(1H)-one] | 0.1 | 7.3 | – | – |
| C[C@H]1C[C@@H](c2ncc(-c3ccc(N)nc3Cl)[nH]2)n2c1nc(-c1c(-n3cnnn3)ccc(Cl)c1F)cc2=O (single isomer, unassigned) [Example 140] | ~575 | – | 9100 | – |
| O=c1cc(-c2c(-n3cnnn3)ccc(Cl)c2F)nc2n1[C@H](c1nc(-c3ccnc(OCC(O)C(F)(F)F)c3F)c[nH]1)CC21CC1 (single isomer, unassigned) [Example 73, (S)-2′-(3-chloro-2-fluoro-6-(1H-tetrazol-1-yl)phenyl)-6′-(4-(3-fluoro-2-((S*)-3,3,3-trifluoro-2-hydroxypropoxy)pyridin-4-yl)-1H-imidazol-2-yl)-6′,7′-dihydro-4′H-spiro[cyclopropane-1,8′-pyrrolo[1,2-a]pyrimidin]-4′-one] | 22.1 | 54.8 | – | – |
| CC(O)c1nccc(-c2cnc([C@H]3CC4(CC4)c4cc(-c5c(-n6cnnn6)ccc(Cl)c5F)cc(=O)n43)[nH]2)c1F (single isomer, unassigned) [Example 6, (3′R)-7′-(3-Chloro-2-fluoro-6-(1H-tetrazol-1-yl)phenyl)-3′-(5-(3-fluoro-2-(1-hydroxyethyl)pyridin-4-yl)-1H-imidazol-2-yl)-2′,3′-dihydro-5′H-spiro[cyclopropane-1,1′-indolizin]-5′-one] | 17 | 72.8 | – | – |
| COc1cc(-c2cnc([C@H]3C[C@H](C)c4nc(-c5c(-n6cnnn6)ccc(Cl)c5F)cc(=O)n43)[nH]2)ccn1 (stereo in doubt) [Example 100, (6*R,8*S)-2-(3-Chloro-2-fluoro-6-(1H-tetrazol-1-yl)phenyl)-6-(5-(2-methoxypyridin-4-yl)-1H-imidazol-2-yl)-8-methyl-7,8-dihydropyrrolo[1,2-a]pyrimidin-4(6H)-one] | 6.9 | 7.6 | – | – |
| C[C@H]1C[C@H](c2ncc(-c3ccc(NC(=O)C4CC4)nc3)[nH]2)n2c1nc(-c1c(-n3cnnn3)ccc(Cl)c1F)cc2=O (stereo in doubt) [Example 121, N-(5-(2-((6*R,8*S)-2-(3-Chloro-2-fluoro-6-(1H-tetrazol-1-yl)phenyl)-8-methyl-4-oxo-4,6,7,8-tetrahydropyrrolo[1,2-a]pyrimidin-6-yl)-1H-imidazol-5-yl)pyridin-2-yl)cyclopropanecarboxamide] | 675 | – | 4800 | – |
| Nc1ccc(-c2cnc([C@@H]3CC4(CC4)c4nc(-c5c(-n6cnnn6)ccc(Cl)c5F)cc(=O)n43)[nH]2)c(F)n1 [Example 134, (S)-6′-(5-(6-Amino-2-fluoropyridin-3-yl)-1H-imidazol-2-yl)-2′-(3-chloro-2-fluoro-6-(1H-tetrazol-1-yl)phenyl)-6′,7′-dihydro-4′H-spiro[cyclopropane-1,8′-pyrrolo[1,2-a]pyrimidin]-4′-one] | 1.2 | 16.8 | – | – |
| CNC(=O)c1ccc(-c2cnc([C@@H]3C[C@H](C)c4cc(-c5c(-n6cnnn6)ccc(Cl)c5F)cc(=O)n43)[nH]2)cn1 [Example 12, 5-(2-((1S,3S)-7-(3-Chloro-2-fluoro-6-(1H-tetrazol-1-yl)phenyl)-1-methyl-5-oxo-1,2,3,5-tetrahydroindolizin-3-yl)-1H-imidazol-5-yl)-N-methylpicolinamide] | 63.7 | 205 | – | – |
